# Test results published in patent US6576647B2, “Pseudopolymorph of (—)-cis-2-(2-chlorophenyl)-5,7-dihydroxy-8[4R-(3S-hydroxy -1-methyl)piperidinyl]-4H-1-benzopyran-4-one” (Aventis Pharmaceuticals Inc., priority 2000, dated 2003).
# Entries after “also recorded” stand apart in the source; their conditions may differ.
# Experiments:
# [1] = Hygroscopicity screening by Dynamic Water Vapor Sorption Analysis (DVS); format: physicochemical; settings: for hygroscopicity assessment: conclusion from DVS weight gain, hydrochloride; for weight gain: 25° C. and 40° C.
# Method: Hygroscopicity Screening—Comparison of Form I and Form II
# Dynamic Vapor Sorption (DVS) Analysis Studies were Conducted on Form II Versus Form I.
# Dynamic Water Vapor Sorption Analysis (DVS)
# Form II was studied at 25° C. using a Surface Measurement Systems Dynamic Vapor Sorption DVS-1 analyzer. A sample in the range of about 14.8 mg was placed in a tared quartz sample holder at an initial ambient room humidity setting of about 48% Relative Humidity (RH). A total wet/dry nitrogen flow rate of 200 cc/min was used throughout the study. The following full cycle program was initiated: 30 min at the initial ambient RH, followed by settings of 0, 20, 40, 60, 80, 90, 95 and 98% RH, with exposure time at each humidity set point dependent upon dm/dt being less than 0.001% for 60 min. The maximum time allowed at any one humidity set point was 24 hours. For a full cycle, data collection took about 4 days to complete. After the full cycle the sample was maintained at the same RH as the initial ambient starting RH.
# Form I was studied at 25° C. and 40° C. using the DVS-1 analyzer. Data was collected over two full cycles. Samples of 10.4 and 16.7 mg were placed into respective tared quartz sample holders at an initial ambient room humidity setting of about 46% RH and 33% RH, respectively. For this study, an additional 75% RH set point was used. For 2 full cycles, data collection took about 7 days at 25° C. and about 17 days at 40° C. to complete. After completion of each 2 cycle study, the samples were maintained at the same RH as the initial ambient starting RH.
# [2] = Variable humidity X-ray powder diffraction (crystallinity versus relative humidity); format: physicochemical; settings: variable humidity XRPD; hydrochloride
# From the text: X-ray Powder Diffraction (XRPD) patterns were taken on a Scintag XDS 2000 θ/θ diffractometer operating with copper radiation at 45 kV and 40 mA, using a Kevex Psi Peltier-cooled silicon detector. Source slits of 2 and 4 mm, and detector slits of 0.5 and 0.3 mm were used for data collection. Form II samples were gently milled using an agate mortar and pestle for approximately one minute, placed in a platinum sample pan, and leveled using a glass microscope slide. Samples taken during or post hygroscopicity testing were not milled due to the limited amount of sample available. In each case, powder diffraction patterns were scanned from 2° to 42° 2θ at 1°/minute. Calibration of the XDS 2000 was verified using Silicon powder.
# For variable relative humidity experiments, the larger capacity DVS-2 Surface Measurement Systems Dynamic Vapor Sorption analyzer was used. Using a flow rate of 500 cc/min, Form II was held at desired RH settings and sampled periodically for XRPD analysis. Unmilled material was placed in the platinum sample pan and leveled using a glass microscope slide prior to analysis using the above conditions.
"additional weight gain ([1]; DVS, above 60% relative humidity, 25° C.)","weight gain ([1]; DVS, above 90% RH)","weight gain ([1]; DVS, through about 75% RH)",SMILES,hygroscopicity assessment [1],crystallinity as the humidity is increased [2]
15-20%,,,"CN1CC[C@H](c2c(O)cc(O)c3c(=O)cc(-c4ccccc4Cl)oc23)[C@H](O)C1.Cl (relative stereo) [Form II, (−)-cis-2-(2-chlorophenyl)-5,7-dihydroxy-8[4R-(3S-hydroxy-1-methyl)piperidinyl]-4H-1-benzopyran-4-one hydrochloride, reference compound]",hygroscopic,apparent decrease in crystallinity
,about 30%,1-2%,"CN1CC[C@H](c2c(O)cc(O)c3c(=O)cc(-c4ccccc4Cl)oc23)[C@H](O)C1.Cl (relative stereo) [Form I, (−)-cis-2-(2-chlorophenyl)-5,7-dihydroxy-8[4R-(3S-hydroxy-1-methyl)piperidinyl]-4H-1-benzopyran-4-one hydrochloride]",hygroscopic above 75% RH; also recorded: less hygroscopic than Form II,retains its crystallinity until extremely high relative humidity is reached
